Test results taken from PubChem BioAssay AID248 (DTP/NCI, 2004).
Several values for one entry are separate records, joined by “and”; a condition that tells them apart may be missing. Equal values may be shown once. Toxic doses and inconclusive results are not listed. Rule as the data show it: active = T/C of 150% or more; inactive = T/C below 125%.

Tested on: L1210 leukemia ip in BDF1 mice, survival T/C
Assay: NCI In Vivo Anticancer Drug Screen. Data for tumor model L1210 Leukemia (intraperitoneal) in B6D2F1 (BDF1) mice
Conditions: endpoint: mean survival time, higher = longer survival
Outline: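 Transplanted-tumor mice were given test agent; controls received vehicle only. Survival readings from the two groups were divided (treated over control).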

[1] = dose: 50.0 mg/kg/injection, schedule: Q01DX009 (ip), vehicle: saline with Tween-80
[2] = dose: 100.0 mg/kg/injection, schedule: Q01DX009 (ip), vehicle: saline with Tween-80
[3] = dose: 200.0 mg/kg/injection, schedule: Q01DX009 (ip), vehicle: saline with Tween-80
[4] = dose: 100.0 mg/kg/injection, schedule: Q04DX003 (ip), vehicle: saline with Tween-80
[5] = dose: 200.0 mg/kg/injection, schedule: Q04DX003 (ip), vehicle: saline with Tween-80
[6] = dose: 400.0 mg/kg/injection, schedule: Q04DX003 (ip), vehicle: saline with Tween-80
[7] = dose: 100.0 mg/kg/injection, schedule: Q04DX002 (ip), vehicle: Klucel (hydroxypropylcellulose) (HPC)
[8] = dose: 100.0 mg/kg/injection, schedule: Q04DX003 (ip), vehicle: Klucel (hydroxypropylcellulose) (HPC)
[9] = dose: 400.0 mg/kg/injection, schedule: Q01DX009 (ip), vehicle: saline with Tween-80
[10] = dose: 200.0 mg/kg/injection, schedule: Q04DX003 (ip), vehicle: Klucel (hydroxypropylcellulose) (HPC)
[11] = dose: 400.0 mg/kg/injection, schedule: Q04DX003 (ip), vehicle: Klucel (hydroxypropylcellulose) (HPC)
[12] = dose: 75.0 mg/kg/injection, schedule: Q01DX001 (ip), vehicle: saline

Measured: T/C

C=C(C)C1CCC(C)=CC1c1c(OC(=O)c2cc([N+](=O)[O-])cc([N+](=O)[O-])c2)cc(CCCCC)cc1OC(=O)c1cc([N+](=O)[O-])cc([N+](=O)[O-])c1 (stereo unspecified)
inactive: dose: 100.0 mg/kg/injection, schedule: Q01DX001 (ip), vehicle: Klucel (hydroxypropylcellulose) (HPC) 92 % of control | dose: 200.0 mg/kg/injection, schedule: Q01DX001 (ip), vehicle: Klucel (hydroxypropylcellulose) (HPC) 91 % of control | dose: 400.0 mg/kg/injection, schedule: Q01DX001 (ip), vehicle: Klucel (hydroxypropylcellulose) (HPC) 92 % of control

CC(C)(SC(c1ccccc1)(c1ccccc1)c1ccccc1)C(N)C(=O)O (stereo unspecified)
inactive: dose: 6.25 mg/kg/injection, schedule: Q01DX009 (ip), vehicle: saline 103 % of control | dose: 12.5 mg/kg/injection, schedule: Q01DX009 (ip), vehicle: saline 102 % of control | dose: 25.0 mg/kg/injection, schedule: Q01DX009 (ip), vehicle: saline 108 % of control

CCC1(C)OC(=O)NC1=O (stereo unspecified)
inactive: [1] 96 % of control | [2] 101 % of control | [3] 86 % of control

O=[N+]([O-])c1nc2ccccc2[nH]1
inactive: dose: 100.0 mg/kg/injection, schedule: Q01DX001 (ip), vehicle: other 98 % of control

O=C(CC(CC(=O)c1ccccc1)c1ccncc1)c1ccccc1
inactive: dose: 50.0 mg/kg/injection, schedule: Q01DX001 (ip), vehicle: carboxymethylcellulose (CMC) 95 % of control | dose: 200.0 mg/kg/injection, schedule: Q01DX001 (ip), vehicle: carboxymethylcellulose (CMC) 90 % of control | dose: 400.0 mg/kg/injection, schedule: Q01DX001 (ip), vehicle: carboxymethylcellulose (CMC) 86 % of control

CC(=O)NC1CONC1=O (stereo unspecified)
inactive: [4] 98 % of control | [5] 98 % of control | [6] 94 % of control

CS(=O)(=O)n1c(CBr)nc2ccccc21
inactive: dose: 100.0 mg/kg/injection, schedule: Q04DX003 (ip), vehicle: saline sonified 103 % of control | dose: 200.0 mg/kg/injection, schedule: Q04DX003 (ip), vehicle: saline sonified 88 % of control

COC(=O)C(=O)CC(=O)c1cccc(Cl)c1
inactive: dose: 10.0 mg/kg/injection, schedule: Q04DX002 (ip), vehicle: Klucel (hydroxypropylcellulose) (HPC) 92 % of control | dose: 20.0 mg/kg/injection, schedule: Q04DX002 (ip), vehicle: Klucel (hydroxypropylcellulose) (HPC) 96 % of control | dose: 40.0 mg/kg/injection, schedule: Q04DX002 (ip), vehicle: Klucel (hydroxypropylcellulose) (HPC) 105 % of control

O=C(NC(CBr)CCCBr)c1ccc([N+](=O)[O-])cc1 (stereo unspecified)
inactive: [4] 105 % of control | [5] 94 % of control | [6] 94 % of control

Nc1nc(N)nc(-c2cccc(Cl)c2)n1
inactive: dose: 25.0 mg/kg/injection, schedule: Q04DX003 (ip), vehicle: Klucel (hydroxypropylcellulose) (HPC) 107 % of control | dose: 50.0 mg/kg/injection, schedule: Q04DX003 (ip), vehicle: Klucel (hydroxypropylcellulose) (HPC) 101 % of control | [7] 111 % of control | [8] 102 % of control

CCOC(=O)c1ccc(NC(=O)Oc2ccc(-c3ccccc3)cc2)cc1
inactive: dose: 100.0 mg/kg/injection, schedule: Q01DX001 (ip), vehicle: saline with Tween-80 96 % of control | [2] 97 % of control and 102 % of control | dose: 100.0 mg/kg/injection, schedule: Q04DX002 (ip), vehicle: saline with Tween-80 94 % of control and 100 % of control | dose: 200.0 mg/kg/injection, schedule: Q01DX001 (ip), vehicle: saline with Tween-80 88 % of control | [3] 92 % of control and 97 % of control | dose: 200.0 mg/kg/injection, schedule: Q04DX002 (ip), vehicle: saline with Tween-80 101 % of control and 88 % of control | dose: 400.0 mg/kg/injection, schedule: Q01DX001 (ip), vehicle: saline with Tween-80 96 % of control | [9] 93 % of control and 100 % of control | dose: 400.0 mg/kg/injection, schedule: Q04DX002 (ip), vehicle: saline with Tween-80 97 % of control

OC12CC3CC(CC(C3)C1)C2
inactive: dose: 100.0 mg/kg/injection, schedule: Q01DX001 (ip), vehicle: saline 95 % of control | dose: 200.0 mg/kg/injection, schedule: Q01DX001 (ip), vehicle: saline 106 % of control | dose: 400.0 mg/kg/injection, schedule: Q01DX001 (ip), vehicle: saline 103 % of control

O=C(O)Cc1c[nH]c(=O)[nH]c1=O
inactive: [2] 97 % of control | [4] 102 % of control | [3] 103 % of control | [5] 103 % of control | [9] 101 % of control | [6] 92 % of control

CC(C)=C(B1OC(C)(C)C(C)(C)O1)B1OC(C)(C)C(C)(C)O1
inactive: [8] 93 % of control | [10] 95 % of control | [11] 97 % of control

CCCCN(CCCCS(=O)(=O)O)c1ccc(N=Nc2cc(Cl)ccc2Cl)cc1
inactive: [8] 94 % of control | [10] 105 % of control

N/N=C\C=N\N
inactive: dose: 15.0 mg/kg/injection, schedule: Q01DX Z (ip), vehicle: saline 107 % of control | dose: 30.0 mg/kg/injection, schedule: Q01DX Z (ip), vehicle: saline 107 % of control | dose: 60.0 mg/kg/injection, schedule: Q01DX Z (ip), vehicle: saline 107 % of control

Cc1cc(N(CCOS(C)(=O)=O)CCOS(C)(=O)=O)ccc1C=Nc1ccc(C(=O)O)c(O)c1
inactive: dose: 4.0 mg/kg/injection, schedule: Q01DX009 (ip), vehicle: saline with Tween-80 111 % of control | dose: 6.0 mg/kg/injection, schedule: Q01DX009 (ip), vehicle: saline with Tween-80 119 % of control

CC1=NN(c2ccc(S(=O)(=O)O)cc2)C(=O)C1
inactive: [8] 89 % of control | [10] 98 % of control | [11] 91 % of control

[O]=[Sb]([OH])([c]1ccc(Cl)cc1)[c]1ccc(Cl)cc1
inactive: [12] 116 % of control

COC(=O)CCSCCC(=O)OC
inactive: dose: 100.0 mg/kg/injection, schedule: Q01DX009 (ip), vehicle: Klucel (hydroxypropylcellulose) (HPC) 105 % of control | [8] 103 % of control | dose: 200.0 mg/kg/injection, schedule: Q01DX009 (ip), vehicle: Klucel (hydroxypropylcellulose) (HPC) 97 % of control | [10] 101 % of control | dose: 400.0 mg/kg/injection, schedule: Q01DX009 (ip), vehicle: Klucel (hydroxypropylcellulose) (HPC) 95 % of control | [11] 105 % of control

Cc1cccc([N+](=O)[O-])n1
inactive: dose: 25.0 mg/kg/injection, schedule: Q01DX009 (ip), vehicle: saline with Tween-80 94 % of control | [1] 94 % of control | [4] 89 % of control

CCS(=O)(=O)N1CC(C)OC(C)C1 (stereo unspecified)
inactive: [7] 96 % of control | dose: 200.0 mg/kg/injection, schedule: Q04DX002 (ip), vehicle: Klucel (hydroxypropylcellulose) (HPC) 103 % of control | dose: 400.0 mg/kg/injection, schedule: Q04DX002 (ip), vehicle: Klucel (hydroxypropylcellulose) (HPC) 107 % of control

CCCCCC(=O)NC1CCCCC1
inactive: [12] 89 % of control | dose: 150.0 mg/kg/injection, schedule: Q01DX001 (ip), vehicle: saline 89 % of control

Cc1c(CCO)sc[n+]1Cc1ccccc1
inactive: dose: 100.0 mg/kg/injection, schedule: Q04DX002 (ip), vehicle: saline 93 % of control | dose: 200.0 mg/kg/injection, schedule: Q04DX002 (ip), vehicle: saline 100 % of control
